Assay results published in PMC4827351 (Chemical Science, 2015).

Key:
[1] = Sedimentation equilibrium analytical ultracentrifugation; assay type: physicochemical; settings: 10 mM sodium phosphate; for MW (sedimentation equilibrium, SEDPHAT): pH 7.4, 20 °C, global fit
Method: Sedimentation equilibrium (SE) experiments were performed to determine the molecular weight of proHD6. The proHD6 samples were prepared as described in the SV experiments with modification. In a typical set of experiments, proHD6 solutions in Milli-Q water (≈100 μL) prepared in microcentrifuge tubes were lyophilized to dryness. An aliquot (110 μL, pre-filtered, 0.22 μm filter) of 10 mM sodium phosphate buffer adjusted to pH 7.4 was added to each tube to afford solutions with varying concentrations of proHD6 (30, 60, and 120 μM) and transferred to AUC sample cells. The pH of each solution was measured to confirm that each solution remained at pH 7.4. Based on the sedimentation coefficients obtained from the SV experiments, equilibrium profiles were obtained at rotor speeds of 30 000, 36 000, and 42 000 rpm. Once equilibrium was established, two scans with five replicates were recorded. The absorption wavelength for optical detection was 280 nm, and the instrument was maintained at 20 °C.
The details of the experimental setup and data analysis are reported elsewhere.[52] SEDNTERP[53] was employed to calculate the buffer viscosity (η), buffer density (ρ), and the partial specific volume (value of proHD6 at 20 °C) as described in the SV section. The molecular weight of proHD6 was determined by global fitting of the multispeed equilibrium data across all loading concentrations at pH 7.4 using SEDPHAT.[31] The Species Analysis model with mass conservation was employed for data analysis. The bottom of the sample sector was assigned as a floating parameter. To further evaluate whether each least-squares curve-fitting procedure converged to a global minimum, the alternate methods of Simplex, Marquardt–Levenberg, and simulated annealing were employed to assess any change in the global reduced chi-squared value.
Table S5. Molecular weight fitting of SE data for proHD6 by using SEDPHAT.a 95% Confidence Standard Global Reduced Critical Chi-Squared
Sample MW (Da) Intervalb Deviationb Chi-Squared Valuec […]
a All samples were in 10 mM sodium phosphate, pH 7.4. Global fitting used partial specific volume (v) at 20 °C, a solvent density ( ρ) of 0.99967 g/mL, and a solvent viscosity (η) of 1.0061 cP. Viscosity units are in centipoise (cP) (1 poise = 1 gŸ[…] cm-1Ÿ[…]s-1). b Calculated from 1000 iterations of Monte-Carlo analysis. c Calculated at a 95% confidence level.

[2] = tested on: L. monocytogenes ATCC 19115 invasion of human T84 colon epithelial cells; assay: Listeria invasion assay; assay type: cell-based, Listeria monocytogenes; settings: proHD6 ≤10 µM, no trypsin, bacteria pre-incubated with peptide 30 min at room temperature, n = 3
Method: Fig. 5 Listeria invasion assays for native and cleaved proHD6. Invasion of human T84 colon epithelial cells by L. monocytogenes ATCC 19115 pre-treated with proHD6 in the absence and presence of 0.4 μM trypsin or HD6 (control). The bacteria (2 × 10^6 CFU mL^–1) were incubated with the indicated peptides for 30 min prior to the infection of the T84 cells (mean ± SDM, n = 3).
Concentrated (20×, 10 μL) solutions of HD6 and proHD6 were prepared in sterile Milli-Q water (0, 50, 100, and 200 μM). For conditions that required trypsin, a 1 mg mL^–1 stock solution of TPCK-treated trypsin (Worthington) in sterile Milli-Q water was added to the 20× proHD6 solutions to yield a final trypsin concentration of 0.01 mg mL^–1. A 190 μL aliquot of the diluted bacterial culture was added to each […] peptide solution and the resulting mixtures were incubated at room temperature for 30 min. The invasion assays were then performed by following a literature protocol.[15],[50] All invasion assays were conducted with at least two independently prepared and purified samples of each peptide and in three independent trials and the resulting averages with standard deviations are reported.

[3] = tested on: Listeria monocytogenes ATCC 19115; assay: Antimicrobial activity assay (CFU counting); assay type: cell-based; settings: 50 µM peptide, 1 h, 37 °C, 10 mM sodium phosphate buffer containing 1% v/v TSB, n = 3
Method: (§1) The assays were performed according to a literature procedure.[15] Briefly, a 90 μL aliquot of the diluted bacterial culture was added to each well and then to each well was added 10 μL of a 10× concentrated aqueous peptide solution (500 μM) or sterile Milli-Q water as a no-peptide control. The plate was incubated for 1 h (37 °C, 150 rpm). The serial dilution for CFU counting was conducted as previously reported.[15] These assays were performed with at least two independently prepared and purified samples of each peptide and in three independent trials. The resulting averages and standard deviations are reported. […]
(§2) a bE. coliL. monocytogenes
(§3) Concentration (µM) Concentration (µM)
(§4) Figure S4. Antibacterial activity assays against E. coli ATCC 25922 and L. monocytogenes ATCC 19115. The bacteria were treated with 50 µM of each peptide for 1 h at 37 ° C in 10 mM sodium phosphate buffer containing 1% v/v TSB (mean ± SDM, n = 3). An asterisk indicates no […]
(§5) Retention Time (min) Retention Time (min)
(§6) Figure S5. In vitro trypsin-catalyzed proteolysis of proHD6. Analytical HPLC traces of trypsin-treated (a) proHD6 or (b) mature HD6 (30 µM x 80 µL) at indicated time points. Absorbance at 220 nm was monitored with a reference wavelength of 500 nm. Method: 10–60% B over 30 min

[4] = tested on: Escherichia coli ATCC 25922; assay: Antimicrobial activity assay (CFU counting); assay type: cell-based; settings: 50 µM peptide, 1 h, 37 °C, 10 mM sodium phosphate buffer containing 1% v/v TSB, n = 3
Method: as §1, §2, §3, §4, §5, §6

EPLQAEDDPLQAKAYEADAQEQRGANDQDFAVSFAEDASSSLRALGSTRAFTCHCRRSCYSTEYSYGTCTVMGINHRFCCL (disulfide (positions not given here)) [proHD6, 81-residue propeptide of human α-defensin 6, recombinant, from His6-SUMO-proHD6]
molecular weight in solution (sedimentation equilibrium, global analysis) ([1]; pH 7.4, 20 °C, 30, 60, 120 µM proHD6, 30 000/36 000/42 000 rpm, A280, SEDPHAT, SD ±230 Da, 95% interval 15 059-15 946 Da): 15 549 Da
MW (sedimentation equilibrium, SEDPHAT) ([1]; Sample 1): 15176 Da
MW (sedimentation equilibrium, SEDPHAT) ([1]; Sample 2): 15351 Da
MW (sedimentation equilibrium, SEDPHAT) ([1]; Sample 3): 15549 Da
L. monocytogenes invasion into human intestinal epithelial cells [2]: did not impair
antibacterial activity [3]: does not exhibit antibacterial activity
antibacterial activity [4]: does not exhibit antibacterial activity
